From patent publication US7064120B2, “Tricyclic pyridyl carboxamides and derivatives thereof tocolytic oxytocin receptor antagonists” (Wyeth, priority 2001, dated 2006) come the findings set out here.

The inhibition is the relative decrease from the control value, in per cent.

The target in the first assay is T1, human oxytocin receptor (Homo sapiens, UniProt P30559).
T1 construct: host or cells: CHO cells, stably transfected (pcDNA3.1 vector)
T1 sequence (P30559 1-389): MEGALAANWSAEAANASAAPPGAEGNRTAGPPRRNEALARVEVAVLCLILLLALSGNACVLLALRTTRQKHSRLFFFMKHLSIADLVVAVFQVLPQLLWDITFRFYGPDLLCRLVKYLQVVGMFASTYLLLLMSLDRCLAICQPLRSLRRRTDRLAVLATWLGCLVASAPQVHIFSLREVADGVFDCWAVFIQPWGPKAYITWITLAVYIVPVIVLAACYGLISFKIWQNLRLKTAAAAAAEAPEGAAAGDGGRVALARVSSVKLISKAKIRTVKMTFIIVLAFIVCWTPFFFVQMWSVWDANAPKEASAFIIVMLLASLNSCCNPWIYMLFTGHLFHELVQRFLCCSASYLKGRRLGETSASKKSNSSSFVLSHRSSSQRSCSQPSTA
Description: Oxytocin binding in CHO cell membranes expressing human oxytocin receptors ([3H]oxytocin radioligand binding). As to conditions: 100 nM. The method, boiled down: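 CHO membranes expressing human oxytocin receptor (25–50 μg protein/well) incubated 60 min at room temperature with [3H]oxytocin in Tris-HCl pH 7.4 buffer with MgCl2, BSA and protease inhibitors. Filtration and scintillation counting; reported as % inhibition at a stated concentration or nM IC50.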
On to `COc1cc(C(=O)N2Cc3ccc(C(=O)N4CCN(c5ccncc5)CC4)n3Cc3ccccc32)ccc1-c1ccccc1C` [Example 118], for which the “OT % inhibition @ 100 nM” value came to 83%.

Still in this assay, the particulars now being: 100 nM, read-out: OT % inhibition @ 100 nM.
On to `COc1cccc(-c2ccc(C(=O)N3Cc4ccc(C(=O)N5CCN(c6ccncc6)CC5)n4Cc4ccccc43)cc2C)c1` [Example 115, {10-[(3′-Methoxy-2-methyl-[1,1′-biphenyl]-4-yl)carbonyl]-10,11-dihydro-5H-pyrrolo[2,1-c][1,4]benzodiazepin-3-yl}[4-(4-pyridinyl)-1-piperazinyl]methanone], for which the inhibition at 0.1 µM is 66%. Same read-out and setting: to `COc1ccccc1-c1ccc(C(=O)N2Cc3ccc(C(=O)N4CCN(c5ccncc5)CC4)n3Cc3ccccc32)cc1` [Example 116, {10-[(2′-Methoxy-[1,1′-biphenyl]-4-yl)carbonyl]-10,11-dihydro-5H-pyrrolo[2,1-c][1,4]benzodiazepin-3-yl}[4-(4-pyridinyl)-1-piperazinyl]methanone] belongs 101%; to `Cc1ccccc1-c1ccc(C(=O)N2Cc3ccc(C(=O)N4CCN(c5ccncc5)CC4)n3Cc3ccccc32)cc1` [Example 117, {10-[(2′-Methyl-[1,1′-biphenyl]-4-yl)carbonyl]-10,11-dihydro-5H-pyrrolo[2,1-c][1,4]benzodiazepin-3-yl}[4-(4-pyridinyl)-1-piperazinyl]methanone], 13%; to `COc1cc(-c2ccccc2C)c(Cl)cc1C(=O)N1Cc2ccc(C(=O)N3CCN(c4ccncc4)CC3)n2Cc2ccccc21` [Example 119, {10-[(6-Chloro-3-methoxy-2′-methyl-[1,1′-biphenyl]-4-yl)carbonyl]-10,11-dihydro-5H-pyrrolo[2,1-c][1,4]benzodiazepin-3-yl}[4-(4-pyridinyl)-1-piperazinyl]methanone], 83%. With `COc1cccc(-c2cc(OC)c(C(=O)N3Cc4ccc(C(=O)N5CCN(c6ccncc6)CC5)n4Cc4ccccc43)cc2Cl)c1` [Example 120, {10-[(6-Chloro-3,3′-dimethoxy-[1,1′-biphenyl]-4-yl)carbonyl]-10,11-dihydro-5H-pyrrolo[2,1-c][1,4]benzodiazepin-3-yl}[4-(4-pyridinyl)-1-piperazinyl]methanone], the inhibition at 0.1 µM is 67%. The same measure, in the same setting: with `COc1cc(C(=O)N2Cc3ccc(C(=O)N4CCN(c5ccncc5)CC4)n3Cc3ccccc32)ccc1-c1cccc2ccccc12` [Example 121, {10-[3-Methoxy-4-(naphthalen-1-yl)benzoyl]-10,11-dihydro-5H-pyrrolo[2,1-c][1,4]benzodiazepin-3-yl}[4-(4-pyridinyl)-1-piperazinyl]methanone] the figure was 57%; with `COc1ccccc1-c1ccc(C(=O)N2Cc3ccc(C(=O)N4CCN(c5ccncc5)CC4)n3Cc3ccccc32)cc1OC` [Example 122, {10-[(2,2′-Dimethoxy-[1,1′-biphenyl]-4-yl)carbonyl]-10,11-dihydro-5H-pyrrolo[2,1-c][1,4]benzodiazepin-3-yl}[4-(4-pyridinyl)-1-piperazinyl]methanone], 61%. On the same count and under the same terms, with `COc1cccc(-c2ccc(C(=O)N3Cc4ccc(C(=O)N5CCN(c6ccncc6)CC5)n4Cc4ccccc43)cc2OC)c1` [Example 123, {10-[(2,3′-Dimethoxy-[1,1′-biphenyl]-4-yl)carbonyl]-10,11-dihydro-5H-pyrrolo[2,1-c][1,4]benzodiazepin-3-yl}[4-(4-pyridinyl)-1-piperazinyl]methanone] the figure was 95%; with `O=C(c1ccc2n1Cc1ccccc1N(C(=O)c1ccc(-c3cccc4ccccc34)cc1Cl)C2)N1CCN(c2ccncc2)CC1` [Example 124, {10-[2-Chloro-4-(naphthalen-1-yl)benzoyl]-10,11-dihydro-5H-pyrrolo[2,1-c][1,4]benzodiazepin-3-yl}[4-(4-pyridinyl)-1-piperazinyl]methanone], 24%. On the same count and under the same terms, to `COc1ccccc1-c1ccc(C(=O)N2Cc3ccc(C(=O)N(C)CCc4ccncc4)n3Cc3ccccc32)cc1OC` [Example 125, 10-[(2,2′-Dimethoxy-[1,1′-biphenyl]-4-yl)carbonyl]-N-methyl-N-[2-(4-pyridinyl)ethyl]-10,11-dihydro-5H-pyrrolo[2,1-c][1,4]benzodiazepine-3-carboxamide] belongs 94%. Consider `COc1ccccc1-c1ccc(C(=O)N2Cc3ccc(C(=O)N(C)CCc4ccncc4)n3Cc3ccccc32)cc1C` [Example 126, 10-[(2′-Methoxy-2-methyl-[1,1′-biphenyl]-4-yl)carbonyl]-N-methyl-N-[2-(4-pyridinyl)ethyl]-10,11-dihydro-5H-pyrrolo[2,1-c][1,4]benzodiazepine-3-carboxamide], for which the inhibition at 0.1 µM is 93%. Same read-out and setting: with `Cc1ccccc1-c1ccc(C(=O)N2Cc3ccc(C(=O)N(C)CCc4ccncc4)n3Cc3ccccc32)cc1C` [Example 127, 10-[(2,2′-Dimethyl-[1,1′-biphenyl]-4-yl)carbonyl]-N-methyl-N-[2-(4-pyridinyl)ethyl]-10,11-dihydro-5H-pyrrolo[2,1-c][1,4]benzodiazepine-3-carboxamide] the figure was 102%. Same read-out and setting: with `COc1cccc(-c2ccc(C(=O)N3Cc4ccc(C(=O)N(C)CCc5ccncc5)n4Cc4ccccc43)cc2C)c1` [Example 128, 10-[(3′-Methoxy-2-methyl-[1,1′-biphenyl]-4-yl)carbonyl]-N-methyl-N-[2-(4-pyridinyl)ethyl]-10,11-dihydro-5H-pyrrolo[2,1-c][1,4]benzodiazepine-3-carboxamide] the figure was 88%.

With `COc1ccccc1-c1ccc(C(=O)N2Cc3ccc(C(=O)N(C)CCc4ccncc4)n3Cc3ccccc32)cc1` [Example 129, 10-[(2′-Methoxy-[1,1′-biphenyl]-4-yl)carbonyl]-N-methyl-N-[2-(4-pyridinyl)ethyl]-10,11-dihydro-5H-pyrrolo[2,1-c][1,4]benzodiazepine-3-carboxamide], the inhibition at 0.1 µM turned out to be 98%. With `Cc1ccccc1-c1ccc(C(=O)N2Cc3ccc(C(=O)N(C)CCc4ccncc4)n3Cc3ccccc32)cc1` [Example 130, N-Methyl-10-[(2′-methyl-[1,1′-biphenyl]-4-yl)carbonyl]-N-[2-(4-pyridinyl)ethyl]-10,11-dihydro-5H-pyrrolo[2,1-c][1,4]benzodiazepine-3-carboxamide], the inhibition at 0.1 µM is 0%. Consider `COc1cc(C(=O)N2Cc3ccc(C(=O)N(C)CCc4ccncc4)n3Cc3ccccc32)ccc1-c1ccccc1C` [Example 131, 10-[(2-Methoxy-2′-methyl-[1,1′-biphenyl]-4-yl)carbonyl]-N-methyl-N-[2-(4-pyridinyl)ethyl]-10,11-dihydro-5H-pyrrolo[2,1-c][1,4]benzodiazepine-3-carboxamide], for which the inhibition at 0.1 µM was determined as 99%.

Regarding `COc1cc(-c2ccccc2C)c(Cl)cc1C(=O)N1Cc2ccc(C(=O)N(C)CCc3ccncc3)n2Cc2ccccc21` [Example 132, 10-[(6-Chloro-3-methoxy-2′-methyl-[1,1′-biphenyl]-4-yl)carbonyl]-N-methyl-N-[2-(4-pyridinyl)ethyl]-10,11-dihydro-5H-pyrrolo[2,1-c][1,4]benzodiazepine-3-carboxamide], the inhibition at 0.1 µM amounted to 99%.

Regarding `COc1cccc(-c2cc(OC)c(C(=O)N3Cc4ccc(C(=O)N(C)CCc5ccncc5)n4Cc4ccccc43)cc2Cl)c1` [Example 133, 10-[(6-Chloro-3,3′-dimethoxy-[1,1′-biphenyl]-4-yl)carbonyl]-N-methyl-N-[2-(4-pyridinyl)ethyl]-10,11-dihydro-5H-pyrrolo[2,1-c][1,4]benzodiazepine-3-carboxamide], the inhibition at 0.1 µM was 87%.
